Columns and labels:
Format in all cases: cell-based, human
FLG [1] = assay: FLG gene expression in NHEKs, real-time RT-PCR (Example 1); settings: 0.01 and 0.02 v/v % thujopsene, 24 hours, dose-dependent, normalized to 18s RNA (FIG. 1A)
Protocol: (§1) Normal human epidermal keratinocytes (NHEKs) were cultured in a conventional way. NHEKs (Life Technologies, Grand Island, NY, USA) were derived from neonatal foreskin and were grown in serum-free EpiLife cell culture medium (Life Technologies) containing 0.06 mmol/L calcium chloride, 1% human keratinocyte growth supplement S7 (Life Technologies), and 1% of gentamicin/amphotericin. To investigate the effects of thujopsene on the expressions of FLG and LOR, NHEKs were seeded at 2×10^5 cells per well (24-well plate) and differentiated in the presence of 1.3 mmol/L of CaCl2) for 3 days. Then the cells were stimulated with 0 v/v %, 0.01 v/v % and 0.02 v/v % of thujopsene, IL-4 and IL-13, or IFN-γ for an additional 24 hours. Total RNA was isolated from NHEKs. Gene expression levels of FLG and LOR were determined by real-time RT-PCR using an ABI Prism 7300 sequence detector. Gene expressions of FLG and LOR were normalized to the corresponding 18s RNA transcript in the cultured NHEKs.

LOR [2] = assay: LOR gene expression in NHEKs, real-time RT-PCR (Example 1); settings: 0.01 and 0.02 v/v % thujopsene, 24 hours, dose-dependent, normalized to 18s RNA (FIG. 1B)
Protocol: as §1

FLG [3] = assay: Th2 cytokine (IL-4 and IL-13)-mediated inhibition of FLG in NHEKs (Example 2); settings: 0.01% thujopsene 24 hours, then IL-4 and IL-13 with thujopsene for 2 days (FIG. 2)
Protocol: NHEKs were differentiated in the presence of 1.3 mmol/L of CaCl2) for 3 days. HEKs were incubated with 0.01% of thujopsene for 24 hours, and then the cells were continuously stimulated with IL-4 and IL-13 in the presence or absence of 0.01% of thujopsene for an additional 2 days. The gene expression of FLG was examined using real-time RT-PCR.

FLG [4] = assay: FLG gene expression in keratinocytes from atopic dermatitis patients (Example 3); settings: keratinocytes from AD patients, 0.01 v/v % thujopsene, 24 hours, P<0.05 (FIG. 3A)
Protocol: (§2) Human epidermal keratinocytes taken from atopic dermatitis (AD) patients were differentiated in the presence of 1.3 mmol/L of CaCl2) for 3 days, and then the cells were stimulated with 0% and 0.01 v/v % of thujopsene for an additional 24 hours. Total RNA was isolated from keratinocytes. Gene expression levels of FLG and LOR were determined by real-time RT-PCR and normalized to the corresponding 18s RNA transcript in the cultured keratinocytes.

LOR [5] = assay: LOR gene expression in keratinocytes from atopic dermatitis patients (Example 3); settings: keratinocytes from AD patients, 0.01 v/v % thujopsene, 24 hours, P=0.01 (FIG. 3B)
Protocol: as §2

FLG [6] = assay: PM2.5-mediated inhibition of FLG in NHEKs (Example 4); settings: 0.01% thujopsene 24 hours, then PM2.5 (1 ng/mL) plus thujopsene 48 hours (FIG. 4A)
Protocol: (§3) To investigate the effects of the PM2.5 on the expression of FLG and LOR, NHEKs were differentiated in the presence of 1.3 mmol/L of CaCl2) for 3 days. Then cells were stimulated with PM2.5 (1 ng/mL) for an additional 48 hours.
(§4) To examine whether thujopsene blocks PM2.5-mediated inhibition of epidermal barrier proteins such as FLG and LOR, NHEKs were incubated with thujopsene (0.01 v/v %) for 24 hours, and then cells were stimulated with PM2.5 (1 ng/mL) or combination of thujopsene (0.01 v/v %) and PM2.5 for an additional 48 hours. Total RNAs were isolated from the cells, and real time RT-PCR was performed. EpiLife cell culture medium with 0.1% DMSO was used as a vehicle control for all in vitro experiments, as PM2.5 was diluted with EpiLife cell culture medium with 0.1% DMSO.

LOR [7] = assay: PM2.5-mediated inhibition of LOR in NHEKs (Example 4); settings: 0.01% thujopsene 24 hours, then PM2.5 (1 ng/mL) plus thujopsene 48 hours (FIG. 4B)
Protocol: as §3, §4

HBD-3 = HBD-3 gene expression in NHEKs (Example 5); settings: 0.01% and 0.02% thujopsene, 24 hours, dose-dependent, versus no thujopsene (FIG. 5A)
Protocol: (§5) The upregulation of expressions of HBD-3, LL-37, OR2AT4, and/or SIRT1 can promote would healing and the upregulation of SIRT1 can inhibit tumor cell growth in skin cancer. To investigate the effects of thujopsene on expression of RBD-3, LL-37, OR2AT4, and SIRT1, NHEKs were differentiated in the presence of 1.3 mmol/L of CaCl2) for 3 days. Then cells were stimulated with 0.01% or 0.02% thujopsene for an additional 24 hours. The cell culture medium with 0.1% was used as a vehicle control because thujopsene was diluted with 0.1% of DMSO in cell culture medium.
(§6) Total RNA was isolated from to the cells, and real time RT-PCRs were performed by using an ABI Prism 7300 sequence detector.

LL-37 = LL-37 gene expression in NHEKs (Example 5); settings: 0.01% and 0.02% thujopsene, 24 hours, dose-dependent, versus no thujopsene (FIG. 5B)
Protocol: as §5, §6

OR2AT4 = OR2AT4 gene expression in NHEKs (Example 5); settings: 0.01% and 0.02% thujopsene, 24 hours, dose-dependent, versus no thujopsene (FIG. 5C)
Protocol: as §5, §6

SIRT1 [8] = assay: SIRT1 gene expression in NHEKs (Example 5); settings: 0.01% and 0.02% thujopsene, 24 hours, dose-dependent, versus no thujopsene (FIG. 5D)
Protocol: as §5, §6

IL-6 = assay: LPS-induced IL-6 gene expression in NHEKs (Example 6); settings: thujopsene (0.01%) plus LPS (1 μg/mL), 24 hours, versus LPS alone (FIG. 6A)
Protocol: (§7) IL-6 aging process and wrinkling and is induced by lipopolysaccharide (LPS) (PMID: 23659624). SIRT1 inhibits skin aging and wrinkling process (PMID: 24011076). To investigate the effects of thujopsene on expression of IL-6 and SIRT1, NHEKs were seeded at 2×10^5 cells per well and differentiated in the presence of 1.3 mmol/L of CaCl2) for 3 days. NHEKs were stimulated with 0.01% or 0.02% thujopsene for 24 hours, and then cells were stimulated with LPS (1 μg/mL) alone or a combination of LPS (1 μg/mL) and thujopsene (0.01%) for an additional 24 hours. The cell culture medium with 0.1% DMSO was used as a vehicle. Total RNAs were isolated from cells, and real time RT-PCRs were performed by using an ABI Prism 7300 sequence detector.

SIRT1 [9] = assay: SIRT1 gene expression in NHEKs (Example 6)
Protocol: as §7

NHEKs = assay: LDH cell cytotoxicity assay in NHEKs (Example 7)
Protocol: LDH cell cytotoxicity assay: NHEKs were plated at 2×10^5 cells per well in a 24-well plate and differentiated in the presence of 1.3 mmol/L of CaCl2) for 3 days. To examine cell toxicity of thujopsene, the cells were treated with various concentrations of thujopsene for 48 hours, and lactate dehydrogenase (LDH) release was then determined using CytoTox-One Homogeneous Membrane Integrity Assay (Promega, Madison, WI, USA) according to the manufacturer's instructions. Fluorescence was measured on a DTX880 Multimode Detector (Beckman Coulter, Brea, CA, USA) with an excitation wavelength of 560 nm and an emission wavelength of 590 nm. Samples were tested in triplicate and fluorescence results were normalized by subtracting a PBS blank and compared to the keratinocyte LDH release in response to the treatment with 1% triton X-100 solution (maximum LDH release).

SMILES: CC1=CC[C@]2(C)CCCC(C)(C)[C@@]23C[C@@H]13 [thujopsene]
- FLG gene expression (FLG [1]): significantly increases
- LOR gene expression (LOR [2]): significantly increases
- FLG gene expression, Th2 cytokines plus thujopsene compared with Th2 cytokines alone (FLG [3]): significantly (P<0.01) increased
- FLG gene expression compared to vehicle (FLG [4]): significantly increased
- LOR gene expression compared to vehicle (LOR [5]): significantly increased
- level of expression of the FLG gene, PM2.5 plus thujopsene versus control (FLG [6]): higher than the control
- level of expression of the LOR gene, PM2.5 plus thujopsene versus control (LOR [7]): about equal to the control
- gene expression of RBD-3 (HBD-3): significantly increased
- gene expression of LL-37 (LL-37): significantly increased
- gene expression of OR2AT4 (OR2AT4): significantly increased
- gene expression of SIRT1 (SIRT1 [8]): significantly increased
- LPS-induced expression of IL-6 (IL-6): significantly (P<0.01) attenuated
- gene expression of SIRT1 (SIRT1 [9]; 0.01% thujopsene, P<0.05 versus no thujopsene (FIG. 6B)): significantly increased
- gene expression of SIRT1 (SIRT1 [9]; 0.02% thujopsene, P<0.01 versus no thujopsene (FIG. 6B)): significantly increased
- toxicity to NHEKs (NHEKs; thujopsene up to 0.04 v/v % (FIG. 7 legend)): not toxic
- LDH release compared to cells treated with media alone (NHEKs; thujopsene up to 4 v/v %, 48 hours (FIG. 7)): significantly decreased
- toxicity to NHEKs (NHEKs; thujopsene up to 4 v/v %, 48 hours, LDH release (FIG. 7)): not toxic
